Measured values taken from US20250197382A1, “KIF18A INHIBITOR” (WIGEN BIOMEDICINE TECHNOLOGY (SHANGHAI) CO., LTD., priority 2022, published 2025).

These compounds were tested against Recombinant human KIF18A (1-467His-tagged) protein (Homo sapiens (Human), UniProt Q8NI77) (assay: KIF18A enzyme assay (microtubule-stimulated ATPase activity, ADP-Glo)). Conditions: 30 nM KIF18A, ATP 75 μM, read-out: inhibitory activity against KIF18A IC50.
Format: biochemical
Method in brief: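 Baculovirus-expressed human KIF18A (1-467, His-tagged; 30 nM) preincubated 15 min at room temperature with compound (22-point 2-fold series) in pH 7.5 Tris buffer containing 30 μg/mL pig microtubules and 1 μM paclitaxel.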

Chain of Recombinant human KIF18A (1-467His-tagged) protein (Q8NI77 1-467): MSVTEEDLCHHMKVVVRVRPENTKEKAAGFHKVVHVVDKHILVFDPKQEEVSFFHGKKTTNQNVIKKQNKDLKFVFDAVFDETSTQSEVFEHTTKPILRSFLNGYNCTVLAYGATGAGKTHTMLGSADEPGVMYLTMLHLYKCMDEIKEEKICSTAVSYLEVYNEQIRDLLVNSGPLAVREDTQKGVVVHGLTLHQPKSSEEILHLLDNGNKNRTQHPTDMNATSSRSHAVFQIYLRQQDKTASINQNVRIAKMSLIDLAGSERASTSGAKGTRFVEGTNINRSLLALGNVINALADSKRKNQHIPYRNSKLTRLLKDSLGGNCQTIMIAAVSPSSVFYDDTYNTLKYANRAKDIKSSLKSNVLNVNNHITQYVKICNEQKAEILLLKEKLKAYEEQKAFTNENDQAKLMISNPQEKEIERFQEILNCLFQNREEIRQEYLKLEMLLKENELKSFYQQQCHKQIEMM
Chain of Recombinant human KIF18A (1-467His-tagged) protein (P02550 whole entry partner): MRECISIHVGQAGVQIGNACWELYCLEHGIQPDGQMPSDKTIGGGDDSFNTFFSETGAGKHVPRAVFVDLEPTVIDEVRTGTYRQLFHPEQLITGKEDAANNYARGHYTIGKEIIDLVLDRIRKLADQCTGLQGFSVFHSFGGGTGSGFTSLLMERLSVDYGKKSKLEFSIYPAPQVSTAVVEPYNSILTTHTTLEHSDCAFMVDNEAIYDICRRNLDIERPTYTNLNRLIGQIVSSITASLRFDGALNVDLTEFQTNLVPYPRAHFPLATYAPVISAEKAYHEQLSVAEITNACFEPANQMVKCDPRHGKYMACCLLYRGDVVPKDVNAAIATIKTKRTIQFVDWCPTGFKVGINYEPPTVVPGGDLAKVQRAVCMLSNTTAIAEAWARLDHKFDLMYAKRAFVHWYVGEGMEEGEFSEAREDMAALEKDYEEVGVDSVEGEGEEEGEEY
Chain of Recombinant human KIF18A (1-467His-tagged) protein (P02554 whole entry partner): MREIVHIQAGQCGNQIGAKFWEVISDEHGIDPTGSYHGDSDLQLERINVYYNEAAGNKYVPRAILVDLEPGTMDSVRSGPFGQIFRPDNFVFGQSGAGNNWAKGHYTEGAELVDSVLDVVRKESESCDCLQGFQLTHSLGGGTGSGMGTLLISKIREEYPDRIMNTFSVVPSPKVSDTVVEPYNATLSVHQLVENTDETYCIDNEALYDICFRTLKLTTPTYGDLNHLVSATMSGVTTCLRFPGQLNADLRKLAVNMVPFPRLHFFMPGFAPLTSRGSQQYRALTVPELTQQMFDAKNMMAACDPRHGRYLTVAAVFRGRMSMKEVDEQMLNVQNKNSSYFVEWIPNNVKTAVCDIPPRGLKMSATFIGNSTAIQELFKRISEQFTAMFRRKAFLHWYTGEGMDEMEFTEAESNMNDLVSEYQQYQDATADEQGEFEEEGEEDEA

IC50, ≤ 100 nM:
C[C@@H](CO)NS(=O)(=O)c1ccc(C(=O)Nc2cc3ccoc3c(N3CCC(F)(F)CC3)n2)c(N2CCC3(CC2)CC3)c1 [Compound 221], C[C@H](CO)NS(=O)(=O)c1ccc(C(=O)Nc2cc3ccoc3c(N3CCC(F)(F)CC3)n2)c(N2CCC3(CC2)CC3)c1 [Compound 222], C[C@@H]1CN(c2nc(NC(=O)c3ccc(S(=O)(=O)N[C@@H](C)CO)cc3N3CCC4(CC3)CC4)cc3ccoc23)CCO1 [Compound 223], C[C@H](CO)NS(=O)(=O)c1ccc(C(=O)Nc2cc3ccoc3c(N3CCO[C@H](C)C3)n2)c(N2CCC3(CC2)CC3)c1 [Compound 224], O=C(Nc1ccc(NS(=O)(=O)CCO)cc1N1CCC2(CC1)CC2)c1cc2ccoc2c(N2CCC(F)(F)CC2)n1 [Compound 225], C[C@@H]1CN(c2nc(C(=O)Nc3ccc(NS(=O)(=O)CCO)cc3N3CCC4(CC3)CC4)cc3ccoc23)CCO1 [Compound 226], C[C@H]1CN(c2nc(C(=O)Nc3ccc(NS(=O)(=O)CCO)cc3N3CCC4(CC3)CC4)cc3ccoc23)CCO1 [Compound 227], O=C(Nc1ccc(NS(=O)(=O)CCO)cc1N1CCC2(CC1)CC2)c1cc2ccoc2c(N2CC(F)(F)C2)n1 [Compound 228], O=C(Nc1ccc(NS(=O)(=O)CCO)cc1N1CCC2(CC1)CC2)c1cc2ccoc2c(OCCC(F)(F)F)n1 [Compound 229], O=C(Nc1ccc(NS(=O)(=O)CCO)cc1N1CCC2(CC1)CC2)c1cc2ccoc2c(N2CCC3(CC3)C2)n1 [Compound 230], O=C(Nc1ccc(NS(=O)(=O)CCO)cc1N1CCC2(CC1)CC2)c1cc2ccoc2c(OC2CCC2)n1 [Compound 231], CC1(F)CCN(c2nc(C(=O)Nc3ccc(NS(=O)(=O)CCO)cc3N3CCC4(CC3)CC4)cc3ccoc23)C1 (stereo not drawn) [Compound 232], O=C(Nc1ccc(NS(=O)(=O)CCO)cc1N1CCC2(CC1)CC2)c1cc2ccoc2c(N2CCC(F)CC2)n1 [Compound 233], O=C(Nc1ccc(NS(=O)(=O)CCO)cc1N1CCC2(CC1)CC2)c1cc2ccoc2c(N2CC3CC3C2)n1 (stereo not drawn) [Compound 234], CC(C)(CO)Nc1nc(C(=O)Nc2ccc(NS(=O)(=O)CCO)cc2N2CCC3(CC2)CC3)cc2ccoc12 [Compound 235], O=C(Nc1ccc(NS(=O)(=O)CCO)cc1N1CCC2(CC1)CC2)c1cc2ccoc2c(N2CCOCC2)n1 [Compound 236], C[C@@H](CO)S(=O)(=O)Nc1ccc(NC(=O)c2cc3ccoc3c(N3CCC(F)(F)CC3)n2)c(N2CCC3(CC2)CC3)c1 [Compound 237], C[C@H](CO)S(=O)(=O)Nc1ccc(NC(=O)c2cc3ccoc3c(N3CCC(F)(F)CC3)n2)c(N2CCC3(CC2)CC3)c1 [Compound 238], C[C@@H]1CN(c2nc(C(=O)Nc3ccc(NS(=O)(=O)[C@@H](C)CO)cc3N3CCC4(CC3)CC4)cc3ccoc23)CCO1 [Compound 239], C[C@@H]1CN(c2nc(C(=O)Nc3ccc(NS(=O)(=O)[C@H](C)CO)cc3N3CCC4(CC3)CC4)cc3ccoc23)CCO1 [Compound 240], O=C(Nc1ccc(S(=O)(=O)NCCO)cc1N1CCC2(CC1)CC2)c1cc2ccoc2c(N2CCC(F)(F)CC2)n1 [Compound 241], C[C@@H]1CN(c2nc(C(=O)Nc3ccc(S(=O)(=O)NCCO)cc3N3CCC4(CC3)CC4)cc3ccoc23)CCO1 [Compound 242], C[C@H]1CN(c2nc(C(=O)Nc3ccc(S(=O)(=O)NCCO)cc3N3CCC4(CC3)CC4)cc3ccoc23)CCO1 [Compound 243], O=C(Nc1ccc(S(=O)(=O)NCCO)cc1N1CCC2(CC1)CC2)c1cc2ccoc2c(N2CC(F)(F)C2)n1 [Compound 244], O=C(Nc1ccc(S(=O)(=O)NCCO)cc1N1CCC2(CC1)CC2)c1cc2ccoc2c(OCCC(F)(F)F)n1 [Compound 245], O=C(Nc1ccc(S(=O)(=O)NCCO)cc1N1CCC2(CC1)CC2)c1cc2ccoc2c(N2CCC3(CC3)C2)n1 [Compound 246], O=C(Nc1ccc(S(=O)(=O)NCCO)cc1N1CCC2(CC1)CC2)c1cc2ccoc2c(OC2CCC2)n1 [Compound 247], CC1(F)CCN(c2nc(C(=O)Nc3ccc(S(=O)(=O)NCCO)cc3N3CCC4(CC3)CC4)cc3ccoc23)C1 (stereo not drawn) [Compound 248], O=C(Nc1ccc(S(=O)(=O)NCCO)cc1N1CCC2(CC1)CC2)c1cc2ccoc2c(N2CCC(F)CC2)n1 [Compound 249], O=C(Nc1ccc(S(=O)(=O)NCCO)cc1N1CCC2(CC1)CC2)c1cc2ccoc2c(N2CC3CC3C2)n1 (stereo not drawn) [Compound 250], CC(C)(CO)Nc1nc(C(=O)Nc2ccc(S(=O)(=O)NCCO)cc2N2CCC3(CC2)CC3)cc2ccoc12 [Compound 251], O=C(Nc1ccc(S(=O)(=O)NCCO)cc1N1CCC2(CC1)CC2)c1cc2ccoc2c(N2CCOCC2)n1 [Compound 252], C[C@@H](CO)NS(=O)(=O)c1ccc(NC(=O)c2cc3ccoc3c(N3CCC(F)(F)CC3)n2)c(N2CCC3(CC2)CC3)c1 [Compound 253], C[C@H](CO)NS(=O)(=O)c1ccc(NC(=O)c2cc3ccoc3c(N3CCC(F)(F)CC3)n2)c(N2CCC3(CC2)CC3)c1 [Compound 254], C[C@@H]1CN(c2nc(C(=O)Nc3ccc(S(=O)(=O)N[C@@H](C)CO)cc3N3CCC4(CC3)CC4)cc3ccoc23)CCO1 [Compound 255], CN1CCc2cc(C(=O)Nc3ccc(NS(=O)(=O)CCO)cc3N3CCC4(CC3)CC4)cc(N3CCC(F)(F)CC3)c21 [Compound 257], C[C@@H]1CN(c2cc(NC(=O)c3ccc(NS(=O)(=O)CCO)cc3N3CCC4(CC3)CC4)cc3c2N(C)CC3)CCO1 [Compound 258], C[C@H]1CN(c2cc(NC(=O)c3ccc(NS(=O)(=O)CCO)cc3N3CCC4(CC3)CC4)cc3c2N(C)CC3)CCO1 [Compound 259], CN1CCc2cc(NC(=O)c3ccc(NS(=O)(=O)CCO)cc3N3CCC4(CC3)CC4)cc(N3CC(F)(F)C3)c21 [Compound 260], CN1CCc2cc(NC(=O)c3ccc(NS(=O)(=O)CCO)cc3N3CCC4(CC3)CC4)cc(OCCC(F)(F)F)c21 [Compound 261], CN1CCc2cc(NC(=O)c3ccc(NS(=O)(=O)CCO)cc3N3CCC4(CC3)CC4)cc(N3CCC4(CC4)C3)c21 [Compound 262], CN1CCc2cc(NC(=O)c3ccc(NS(=O)(=O)CCO)cc3N3CCC4(CC3)CC4)cc(OC3CCC3)c21 [Compound 263], CN1CCc2cc(NC(=O)c3ccc(NS(=O)(=O)CCO)cc3N3CCC4(CC3)CC4)cc(N3CCC(C)(F)C3)c21 (stereo not drawn) [Compound 264], CN1CCc2cc(NC(=O)c3ccc(NS(=O)(=O)CCO)cc3N3CCC4(CC3)CC4)cc(N3CCC(F)CC3)c21 [Compound 265], CN1CCc2cc(NC(=O)c3ccc(NS(=O)(=O)CCO)cc3N3CCC4(CC3)CC4)cc(N3CC4CC4C3)c21 (stereo not drawn) [Compound 266], CN1CCc2cc(NC(=O)c3ccc(NS(=O)(=O)CCO)cc3N3CCC4(CC3)CC4)cc(N3CCOCC3)c21 [Compound 268], C[C@@H](CO)S(=O)(=O)Nc1ccc(C(=O)Nc2cc3c(c(N4CCC(F)(F)CC4)c2)N(C)CC3)c(N2CCC3(CC2)CC3)c1 [Compound 269], C[C@H](CO)S(=O)(=O)Nc1ccc(C(=O)Nc2cc3c(c(N4CCC(F)(F)CC4)c2)N(C)CC3)c(N2CCC3(CC2)CC3)c1 [Compound 270], C[C@@H]1CN(c2cc(NC(=O)c3ccc(NS(=O)(=O)[C@@H](C)CO)cc3N3CCC4(CC3)CC4)cc3c2N(C)CC3)CCO1 [Compound 271], C[C@@H]1CN(c2cc(NC(=O)c3ccc(NS(=O)(=O)[C@H](C)CO)cc3N3CCC4(CC3)CC4)cc3c2N(C)CC3)CCO1 [Compound 272], CN1CCc2cc(NC(=O)c3ccc(S(=O)(=O)NCCO)cc3N3CCC4(CC3)CC4)cc(N3CCC(F)(F)CC3)c21 [Compound 273], C[C@@H]1CN(c2cc(NC(=O)c3ccc(S(=O)(=O)NCCO)cc3N3CCC4(CC3)CC4)cc3c2N(C)CC3)CCO1 [Compound 274], C[C@H]1CN(c2cc(NC(=O)c3ccc(S(=O)(=O)NCCO)cc3N3CCC4(CC3)CC4)cc3c2N(C)CC3)CCO1 [Compound 275], CN1CCc2cc(NC(=O)c3ccc(S(=O)(=O)NCCO)cc3N3CCC4(CC3)CC4)cc(N3CC(F)(F)C3)c21 [Compound 276], CN1CCc2cc(NC(=O)c3ccc(S(=O)(=O)NCCO)cc3N3CCC4(CC3)CC4)cc(OCCC(F)(F)F)c21 [Compound 277], CN1CCc2cc(NC(=O)c3ccc(S(=O)(=O)NCCO)cc3N3CCC4(CC3)CC4)cc(N3CCC4(CC4)C3)c21 [Compound 278], CN1CCc2cc(NC(=O)c3ccc(S(=O)(=O)NCCO)cc3N3CCC4(CC3)CC4)cc(OC3CCC3)c21 [Compound 279], CN1CCc2cc(NC(=O)c3ccc(S(=O)(=O)NCCO)cc3N3CCC4(CC3)CC4)cc(N3CCC(C)(F)C3)c21 (stereo not drawn) [Compound 280], CN1CCc2cc(NC(=O)c3ccc(S(=O)(=O)NCCO)cc3N3CCC4(CC3)CC4)cc(N3CC4CC4C3)c21 (stereo not drawn) [Compound 282], CN1CCc2cc(NC(=O)c3ccc(S(=O)(=O)NCCO)cc3N3CCC4(CC3)CC4)cc(NC(C)(C)CO)c21 [Compound 283], CN1CCc2cc(NC(=O)c3ccc(S(=O)(=O)NCCO)cc3N3CCC4(CC3)CC4)cc(N3CCOCC3)c21 [Compound 284], C[C@@H](CO)NS(=O)(=O)c1ccc(C(=O)Nc2cc3c(c(N4CCC(F)(F)CC4)c2)N(C)CC3)c(N2CCC3(CC2)CC3)c1 [Compound 285], C[C@H](CO)NS(=O)(=O)c1ccc(C(=O)Nc2cc3c(c(N4CCC(F)(F)CC4)c2)N(C)CC3)c(N2CCC3(CC2)CC3)c1 [Compound 286]
